Reference: US20200339544A1 (JOINT STOCK COMPANY "BIOCAD", priority 2017, published 2020)
Read-outs that look alike come from different tables or passages of the source. Marks after values point to notes of the source that are not given here.

Columns and labels:
[1] = tested on: A549 (lung adenocarcinoma, WT); assay: Antiproliferative activity on A549 cells (Alamar Blue); format: cell-based; details: Homo sapiens, antiproliferative test
Procedure: (§1) Antiproliferative activity of EGFR inhibitors (Tables 15 and 16) was measured in cell-based bioassay on continuous epithelial cell cultures: A549 (lung adenocarcinoma, ATCC® CRM-CCL-185™—WT), HCC827 (lung adenocarcinoma, ATCC® CRL-2868™—SM (SingleMutantEGFR, exon19delE746-A750)) and H1975 (lung adenocarcinoma, ATCC® CRL-5908™—DM (DoubleMutantEGFR, L828R/T790M)) using cell viability reagent Alamar Blue (ThermoFisher, # DAL1100). Cells were cultured in 10% FBS-supplemented (Gibco, #16140071) RPMI-1640 (PanEco, S330p) for at least 1 passage after thawing, washed with PBS and passaged in 96-well culture plates (3599, Corning) with RPMI-1640 growth medium supplemented with 2% FBS in an amount of 5*10^3 cells/well for A549, 10*10^3 cells/well for HCC827 and 15*10^3 cells/well for H1975 in 100 μL, and incubated at 37° C. in an incubator (Thermo Forma, USA) under 5% of CO2 for 16-18 h for cell attachment.
(§2) The test compounds were dissolved in DMSO in the selected range of concentrations and transferred to RPMI-1640 medium (PanEco, S330p) supplemented with 2% FBS. After adding 50 μl of the prepared dilutions to the cells, the incubation mixture contained the final concentrations of the test substances and no more than 1% DMSO. The plates were Incubated at 37° C. for 72 h. After incubation, 15 μl of Alamar Blue vital dye (ThermoFisher, # DAL1100) was added to each well. The plates were shaken on an orbital shaker (Biosan, Latvia) and further incubated for 3-5 h in a CO2 incubator (Thermo Forma, USA). Number of living cells was estimated using a plate spectrophotometer Infinite M200Pro, (Tecan, Switzerland) measuring fluorescent signal at the excitation wavelength (λEx) of 540 nm and emission wavelength (λEm) of 590 nm.
IC50 was calculated using Magellan 7.2 software (Tecan, Switzerland) approximating experimental points by four-parameter logistic model with the optimization by Levenberg-Marquardt.
(§3) The ratio between IC50 for cell lines containing wild-type EGFR (A549) and IC50 for cell lines containing target mutation L828R/T790M (H1975) is the selectivity index (SI): […]

[2] = biological target: T1, DM EGFR (DoubleMutantEGFR, L828R/T790M) (Homo sapiens, UniProt P00533, L858R/T790M); assay: Inhibition of DM EGFR kinase activity (ADP-Glo); format: biochemical; details: for IC50: inhibition of kinase activity, EGFR DM (L828R/T790M); for SI, IC50(WT)/IC50(DM): selectivity index, kinase EGFR WT vs EGFR DM
T1 construct: purchased SignalChem
Procedure: (§4) To assess IC50 values of the compounds disclosed herein, a biochemical assay of inhibition of kinase activity in a non-cellular system and a functional cellular anti-proliferation assay were used.
(§5) To assess inhibition of WT EGFR (Wild-Type EGFR), DM EGFR (DoubleMutantEGFR, L828R/T790M) kinase activity, SignalChem kinase system and ADP-Glo™ Kinase Assay (V9102, Promega) detection kit were used.
(§6) The measurements were carried out in a 25 μL reaction volume using a 96-well plate. […] The solution of 0.5 mg/mL peptide substrate and 50 μM ATP in the same buffer were added; the solution was incubated for 180 minutes at 37° C. To detect the amount of ATP taken up during the kinase reaction, the ADP Glo Detection Kit (V9102, Promega) was used. The luminescence was measured with the Infinite M200Pro plate spectrophotometer (Tecan, Switzerland). IC50 values were calculated using Magellan 7.2 software (Tecan, Switzerland) approximating experimental points by four-parameter logistic model with the optimization by Levenberg-Marquardt (Table 14).

[3] = Chemical stability in human blood plasma; format: in vitro ADME; details: pooled human blood plasma; 10 μm; 4 hours at 37° C.; substance amount remaining
Procedure: 2) Determination of chemical stability in human blood plasma.
Determination of stability in human blood plasma was performed using pooled human blood plasma taken from ten healthy donors. The initial candidate solution (10 mM in DMSO) was diluted with pooled blood plasma to a concentration of 10 μm (test solution). The test solution was incubated in a dry block thermostat for 4 hours at 37° C. HPLC with Agilent 1200 liquid chromatography system (Agilent, USA) was employed to determine peak areas of the compounds in test samples, said peak areas corresponding to the initial test time (prior to incubation) and the final test time (after incubation in a dry block thermostat for 4 hours at 37° C.), proteins were preliminarily precipitated with acetonitrile. We used gradient elution (1 mL/min flow rate). Substance amount in % in a sample after thermostatting was determined.
The stability of the compounds was estimated.

[4] = biological target: T2, WT EGFR (Wild-Type EGFR) (Homo sapiens, UniProt P00533); assay: Inhibition of WT EGFR kinase activity (ADP-Glo); format: biochemical
T2 construct: purchased SignalChem
Procedure: as §4, §5, §6

[5] = tested on: H1975 (lung adenocarcinoma, DM, L828R/T790M); assay: Antiproliferative activity on H1975 cells (Alamar Blue); format: cell-based; details: for IC50: Homo sapiens, NCI-H1975, H1975 cells; for SI IC50(A549)/IC50(DM): selectivity index, A549 vs H1975 cells
Procedure: as §1, §2
IC50 was calculated using Magellan 7.2 software (Tecan, Switzerland) approximating experimental points by four-parameter logistic model with the optimization by Levenberg-Marquardt. […]
as §3

[6] = tested on: HepG2 cells; assay: General cytotoxicity on HepG2 cells; format: cell-based; details: therapeutic index, CC50 HepG2 / IC50 H1975
Procedure: (§7) The CC50 values were determined in the test for General cytotoxicity on HepG2 cells (rhepatocellular carcinoma, ATCC® HB-8065™) (Table 16). The cells were subcultured in DMEM medium (PanEco, S420p) supplemented with 10% FBS (Gibco, #16140071) for at least 1 passage after thawing, washed with PBS and passaged in 96-well culture plates (3599, Corning) at a concentration of 2*10^4 cells/100 μL per well, and incubated for 16-18 h. The test substances were titrated in DMSO and transferred to DMEM (PanEco, S420p) medium supplemented with 2% FBS, added to the cells and incubated at 37° C. for 72 hours; viability of the cells was then assessed using Alamar Blue dye (ThermoFisher, # DAL1100). CC50 was determined similarly to IC50.
(§8) The ratio between CC50 for HepG2 cell line and IC50 for H1975 cell line is the therapeutic index (TI): […]

[7] = General cytotoxicity on HepG2 cells; format: cell-based; details: human; general cytotoxicity, HepG2 cells, 72 hours, average of several tests
Procedure: as §7, §8

[8] = antiproliferative test, Table 15, read-out: IC50 H1975 (DM)
[9] = average values obtained in several tests, Table 16, read-out: H1975 (DM) IC50

| Structure (SMILES) | IC50 [1] [nM] | IC50 [2] [nM] | SI, IC50(WT)/IC50(DM) [2] | Stability in blood plasma, % [3] [%] | IC50 [4] [nM] | IC50 [5, 8] [nM] | IC50 [5, 9] [nM] | SI IC50(A549)/IC50(DM) [5] | TI, CC50/IC50 [6] | CC50 at 72 h [7] [nM] |
| --- | --- | --- | --- | --- | --- | --- | --- | --- | --- | --- |
| C=CC(=O)Nc1cc(Nc2nccc(C(=O)c3ccc(N4CCC(N(C)C)CC4)cc3OC)n2)c(OC)cc1N(C)CCN(C)C [EGFR_3365_127, N-(2-((2-(dimethylamino)ethyl)(methyl)amino)-5-((4-(4-(4-(dimethylamino)piperidin-1-yl)-2-methoxybenzoyl)pyrimidin-2-yl)amino)-4-methoxyphenyl)acrylamide] | > 10000 | 2.96 | 8.29 | – | 24.5 | 8.45 | – | >166** | – | – |
| C=CC(=O)Nc1cc(Nc2nccc(C(=O)c3ccc(N4CCC[C@H](OC)C4)cc3)n2)c(OC)cc1N(C)CCN(C)C [EGFR_3365_110, (S)-N-(2-((2-(dimethylamino)ethyl)(methyl)amino)-4-methoxy-5-((4-(4-(3-methoxypiperidin-1-yl)benzoyl)pyrimidin-2-yl)amino)phenyl)acrylamide] | 9510 | 2.32 | 42.20 | 95.7 | 97.7 | 21.7 | 21.7 | 439 | 855 | 18500 |
| C=CC(=O)Nc1cc(Nc2nccc(C(=O)c3ccc(N4CCC(N)CC4)cc3OC)n2)c(OC)cc1N(C)CCN(C)C [EGFR_3365-126] | – | 1.86 | 10.62 | – | 19.8 | – | – | – | – | – |
| C=CC(=O)Nc1cc(Nc2nccc(C(=O)c3ccc(N4CCC(C#N)CC4)cc3)n2)c(OC)cc1N(C)CCN(C)C [EGFR_3365_97, N-(5-((4-(4-(4-cyanopiperidin-1-yl)benzoyl)pyrimidin-2-yl)amino)-2-((2-(dimethylamino)ethyl)(methyl)amino)-4-methoxyphenyl)acrylamide] | 13800 | 2.3 | 36.55 | 99.3 | 84.2 | 22.9 | 22.9 | 601 | 943 | 21600 |
| C=CC(=O)Nc1cc(Nc2nccc(C(=O)c3ccc(N4CCCCC4)cc3OC)n2)c(OC)cc1N(C)CCN(C)C [EGFR_3365_122, N-(2-((2-(dimethylamino)ethyl)(methyl)amino)-4-methoxy-5-((4-(2-methoxy-4-(piperidin-1-yl)benzoyl)pyrimidin-2-yl)amino)phenyl)acrylamide] | 5310 | 2.67 | 7.35 | 92.2 | 19.7 | 2.21 | 2.21 | 2398 | 5710 | 12600 |
| C=CC(=O)Nc1cc(Nc2nccc(C(=O)c3ccc(N4CCCC4=O)cc3)n2)c(OC)cc1N(C)CCN(C)C [EGFR_3365_91] | 31600 | 4.55 | 23.60 | 95.4 | 107 | > 200 | – | <158 | – | – |

Second part, led by results:

| IC50 [1] [nM] | IC50 [2] [nM] | SI, IC50(WT)/IC50(DM) [2] | Stability in blood plasma, % [3] [%] | IC50 [4] [nM] | IC50 [5, 8] [nM] | IC50 [5, 9] [nM] | Structure (SMILES) | SI IC50(A549)/IC50(DM) [5] | TI, CC50/IC50 [6] | CC50 at 72 h [7] [nM] |
| --- | --- | --- | --- | --- | --- | --- | --- | --- | --- | --- |
| 22900 | 7.57 | 17.56 | 99.1 | 133 | 35.1 | – | C=CC(=O)Nc1cc(Nc2nccc(C(=O)c3ccc(OCCOC)cc3)n2)c(OC)cc1N(C)CCN(C)C [EGFR_3365_92, N-(2-((2-(dimethylamino)ethyl)(methyl)amino)-4-methoxy-5-((4-(4-(2-methoxyethoxy)benzoyl)pyrimidin-2-yl)amino)phenyl) acrylamide] | 652 | – | – |
| 14500 | 1.86 | 44.62 | 96.1 | 83.2 | 13.7 | 13.7 | C=CC(=O)Nc1cc(Nc2nccc(C(=O)c3ccc(N4CCC(OC)CC4)cc3)n2)c(OC)cc1N(C)CCN(C)C [EGFR_3365_98, N-(2-((2-(dimethylamino)ethyl)(methyl)amino)-4-methoxy-5-((4-(4-(4-methoxypiperidin-1-yl)benzoyl)pyrimidin-2-yl)amino)phenyl)acrylamide] | 1065 | 1770 | 24200 |
| 11200 | 2.33 | 79.88 | 100.0 | 186 | 36.6 | 36.6 | C=CC(=O)Nc1cc(Nc2nccc(C(=O)c3ccc(N4CCC[C@@H](OC)C4)cc3)n2)c(OC)cc1N(C)CCN(C)C [EGFR_3365_111, (R)-N-(2-((2-(dimethylamino)ethyl)(methyl)amino)-4-methoxy-5-((4-(4-(3-methoxypiperidin-1-yl)benzoyl)pyrimidin-2-yl)amino)phenyl)acrylamide] | 307 | 742 | 27100 |
| 11800 | 1.75 | 19.99 | 86.0 | 35 | 29.5 | 29.5 | C=CC(=O)Nc1cc(Nc2nccc(C(=O)c3ccc(OC4CC4)cc3)n2)c(OC)cc1N(C)CCN(C)C [EGFR_3365_116, N-(5-((4-(4-cyclopropoxybenzoyl)pyrimidin-2-yl)amino)-2-((2-(dimethylamino)ethyl)(methyl)amino)-4-methoxyphenyl)acrylamide] | 400 | 749 | 22100 |
